Laboratory results taken from US20250074871A1, “PHENETHYLAMINES AND METHODS OF PREPARATION THEREOF” (priority 2022, published 2025).
Like-named read-outs stand apart in the source and are kept apart here.

How the values were obtained:
Format in all cases: cell-based
5-HT2B receptor = biological target: T1, 5-HT2B receptor (Homo sapiens, UniProt P41595); assay: 5-HT2B Gq dissociation BRET functional assay; conditions: Table 2; for EC50: at least three replicate trials; for 5-HT2B BRET Eff %: normalized to % 5-HT stimulation
T1 construct: expressed in transfected cells; host or cells: HEK293T

5-HT2C receptor = biological target: T2, 5-HT2C receptor (Homo sapiens, UniProt P28335); assay: cell-based; conditions: Table 2; for EC50: at least three replicate trials, read-out: 5-HT2C BRET EC50; for 5-HT2C BRET Eff %: normalized to % 5-HT stimulation
T2 construct: expressed in transfected cells; host or cells: HEK293T
T2 sequence (P28335 33-458): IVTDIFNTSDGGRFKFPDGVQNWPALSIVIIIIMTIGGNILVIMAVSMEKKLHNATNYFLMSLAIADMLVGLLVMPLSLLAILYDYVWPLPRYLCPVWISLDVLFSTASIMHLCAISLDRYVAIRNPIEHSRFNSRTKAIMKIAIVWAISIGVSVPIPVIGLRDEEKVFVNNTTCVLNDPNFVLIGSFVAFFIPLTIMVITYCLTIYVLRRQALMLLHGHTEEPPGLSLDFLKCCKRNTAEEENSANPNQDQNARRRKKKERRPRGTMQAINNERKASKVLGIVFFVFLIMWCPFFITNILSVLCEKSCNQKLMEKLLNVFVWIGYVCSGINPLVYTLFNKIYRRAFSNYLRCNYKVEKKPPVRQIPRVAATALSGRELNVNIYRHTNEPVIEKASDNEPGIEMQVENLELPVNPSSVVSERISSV

[1] = biological target: T3, human ether-a-go-go-related gene (hERG) K+ channel (Homo sapiens, UniProt Q12809); assay: Eurofins hERG Qube APC Assay; conditions: for IC50 (hERG)/EC50 (5-HT2A) ratio: Table 4; for hERG risk potential: based on IC50 (hERG)/EC50 (5-HT2A) ratio
T3 construct: Eurofins
Text: As used herein and unless otherwise specified, the term “hERG risk” refers to the risk of a compound potentially inhibiting the human ether-a-go-go-related gene (hERG) K^+ channel, thereby leading to QT prolongation.
As a result of, many compounds disclosed in Table 1 and Table 2 were screened for the potential of “hERG risk” using pharmacological assays (e.g. Eurofins™ hERG Qube APC Assay). […].

5-HT2A receptor = biological target: T4, 5-HT2A receptor (Homo sapiens, UniProt P28223); assay: 5-HT2A Gq dissociation BRET functional assay; conditions: for 5-HT2A BRET Eff %: normalized to % 5-HT stimulation
T4 construct: expressed in transfected cells; host or cells: HEK293T

[2] = 5-HT2A BRET EC50 (nM), Table 2, at least three replicate trials
[3] = EC50 BRET 2A, Table 4, unit inferred
[4] = Table 2, at least three replicate trials, read-out: 5-HT2A BRET EC50

T3 sequence (Q12809 whole entry): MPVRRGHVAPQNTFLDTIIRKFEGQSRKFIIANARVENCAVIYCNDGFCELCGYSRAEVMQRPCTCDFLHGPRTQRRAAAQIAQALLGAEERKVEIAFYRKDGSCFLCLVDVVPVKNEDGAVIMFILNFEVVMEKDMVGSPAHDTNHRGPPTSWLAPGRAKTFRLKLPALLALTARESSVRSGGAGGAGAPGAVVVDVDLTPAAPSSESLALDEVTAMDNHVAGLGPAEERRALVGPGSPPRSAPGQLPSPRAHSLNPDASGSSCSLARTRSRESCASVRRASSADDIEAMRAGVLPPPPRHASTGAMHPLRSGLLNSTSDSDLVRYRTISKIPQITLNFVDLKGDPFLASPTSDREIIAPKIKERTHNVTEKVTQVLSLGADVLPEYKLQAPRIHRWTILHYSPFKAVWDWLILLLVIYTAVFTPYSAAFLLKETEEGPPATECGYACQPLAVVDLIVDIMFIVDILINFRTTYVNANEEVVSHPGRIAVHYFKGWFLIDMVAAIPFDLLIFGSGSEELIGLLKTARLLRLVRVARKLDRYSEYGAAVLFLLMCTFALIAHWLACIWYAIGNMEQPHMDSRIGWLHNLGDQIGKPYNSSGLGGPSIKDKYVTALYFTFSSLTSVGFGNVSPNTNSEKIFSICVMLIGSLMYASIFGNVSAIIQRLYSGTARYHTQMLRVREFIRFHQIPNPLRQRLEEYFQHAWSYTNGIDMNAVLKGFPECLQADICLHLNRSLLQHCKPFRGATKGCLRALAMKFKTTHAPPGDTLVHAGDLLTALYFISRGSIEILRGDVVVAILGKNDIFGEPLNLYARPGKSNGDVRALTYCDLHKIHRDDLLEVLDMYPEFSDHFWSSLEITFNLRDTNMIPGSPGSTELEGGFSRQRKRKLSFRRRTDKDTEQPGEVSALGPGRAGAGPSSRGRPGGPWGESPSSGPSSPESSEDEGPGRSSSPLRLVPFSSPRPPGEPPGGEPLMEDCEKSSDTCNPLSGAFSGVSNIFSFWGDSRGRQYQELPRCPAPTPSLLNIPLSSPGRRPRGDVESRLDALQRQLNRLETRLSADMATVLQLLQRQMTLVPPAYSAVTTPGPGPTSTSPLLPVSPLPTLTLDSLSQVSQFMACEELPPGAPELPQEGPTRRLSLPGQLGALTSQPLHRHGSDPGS
T4 sequence (P28223 whole entry): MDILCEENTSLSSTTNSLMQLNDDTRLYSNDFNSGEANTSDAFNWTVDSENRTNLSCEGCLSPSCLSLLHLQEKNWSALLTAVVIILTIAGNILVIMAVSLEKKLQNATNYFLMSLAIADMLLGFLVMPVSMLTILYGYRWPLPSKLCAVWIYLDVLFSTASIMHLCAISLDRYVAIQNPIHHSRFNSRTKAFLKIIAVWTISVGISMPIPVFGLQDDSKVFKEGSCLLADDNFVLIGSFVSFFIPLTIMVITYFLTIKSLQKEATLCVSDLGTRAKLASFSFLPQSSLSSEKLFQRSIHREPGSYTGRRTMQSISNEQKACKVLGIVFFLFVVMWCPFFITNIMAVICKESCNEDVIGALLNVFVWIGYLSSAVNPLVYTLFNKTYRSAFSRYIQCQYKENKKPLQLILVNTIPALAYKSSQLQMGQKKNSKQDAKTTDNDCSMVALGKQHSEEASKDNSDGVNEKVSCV
T1 sequence (P41595 whole entry): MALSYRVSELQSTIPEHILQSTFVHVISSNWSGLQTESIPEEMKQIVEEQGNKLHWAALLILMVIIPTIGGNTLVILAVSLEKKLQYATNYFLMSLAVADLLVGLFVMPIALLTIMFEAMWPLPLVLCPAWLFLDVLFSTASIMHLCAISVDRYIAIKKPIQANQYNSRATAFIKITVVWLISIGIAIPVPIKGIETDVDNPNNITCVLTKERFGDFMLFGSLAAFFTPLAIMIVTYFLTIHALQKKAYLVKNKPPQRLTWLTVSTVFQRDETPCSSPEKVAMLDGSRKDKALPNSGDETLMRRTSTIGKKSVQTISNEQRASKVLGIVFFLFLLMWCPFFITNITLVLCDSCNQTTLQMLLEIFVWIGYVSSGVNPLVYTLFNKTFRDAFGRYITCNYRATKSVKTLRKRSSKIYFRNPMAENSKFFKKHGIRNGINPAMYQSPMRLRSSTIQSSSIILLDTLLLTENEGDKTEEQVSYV

SMILES | 5-HT2B BRET EC50 (nM) / Eff % (5-HT2B receptor) | EC50 (5-HT2C receptor) [nM] | 5-HT2C BRET Eff % (5-HT2C receptor) [%] | IC50 [1] [nM] | IC50 (hERG)/EC50 (5-HT2A) ratio [1] | hERG risk potential [1] | EC50 (5-HT2A receptor; [2]) [nM] | EC50 (5-HT2A receptor; [3]) [nM] | 5-HT2A BRET Eff % (5-HT2A receptor; Table 2) [%] | EC50 (5-HT2B receptor; read-out: 5-HT2B BRET EC50) [nM] | 5-HT2B BRET Eff % (5-HT2B receptor) [%] | EC50 (5-HT2A receptor; [4]) [nM] | EC50 (5-HT2B receptor; 5-HT2B BRET EC50 (nM)) [nM] | 5-HT2C BRET EC50 (nM) / Eff % (merged cell, word) (5-HT2C receptor)
COc1cccc(CNCCc2ccc(C#N)cc2OC)c1 [Cpd #28] | Inactive | 873 | 91 | 1600 | 19 | High (compounds exhibiting a IC50 (hERG) /EC50 (5-HT2A) ratio of less than or equal to 150 are generally indicative of high hERG risk potential) | 84 | 84 | 68 |  |  |  |  | 
COc1cc(C#N)ccc1CCNCc1ccccc1Cl [Cpd #12] | Inactive | 1200 | 130 | 1720 | 17 | High (compounds exhibiting a IC50 (hERG) /EC50 (5-HT2A) ratio of less than or equal to 150 are generally indicative of high hERG risk potential) | 102 | 102 | 90 |  |  |  |  | 
COc1cc(C#N)ccc1CCNCc1ccc(Cl)cc1 [Cpd #14] | Inactive | 13300 | 74 |  |  |  | 14300 |  | 40 |  |  |  |  | 
COc1cc(Cc2ccccc2)ccc1CCNCc1ccccc1O [Cpd #126] |  | 3.8 | 111 |  |  |  |  |  | 99 | 0.02 | −23 | 1.2 |  | 
CSc1ccccc1CCNCCc1ccc(C#N)cc1O [Cpd #134] |  | 160 | 87 |  |  |  |  |  | 67 | 620 | 85 | 384 |  | 
COc1cc(C#N)ccc1CCNCc1cccs1 [Cpd #138] |  | 198 | 102 |  |  |  |  |  | 75 | 0.03 | −2 | 187 |  | 
CSc1ccccc1CNCCc1ccc(C(F)F)cc1O [Cpd #123] |  | 30 | 120 |  |  |  | 3.2 |  | 96 |  | 95 |  | 6720 | 
COc1cc(C#N)ccc1CCNC1COc2ccccc21 (stereo not shown) [Cpd #52] | Inactive | 12100 | 125 |  |  |  |  |  | 69 |  |  | 1040 |  | 
N#Cc1ccc(CCNCc2ccccc2O)c(C(F)(F)F)c1 [Cpd #137] | Inactive | 56.5 | 83 |  |  |  | 312 |  | 89 |  |  |  |  | 
N#Cc1ccc(CCNCc2cccc3ccsc23)c(O)c1 [Cpd #70] | Inactive | 5400 | 160 |  |  |  |  |  | 11 |  |  | 0.3 |  | 
N#Cc1ccc(CCNCc2ccccc2O)c(OC(F)(F)F)c1 [Cpd #115] | Inactive | 380 | 104 |  |  |  | 212 |  | 94 |  |  |  |  | 
COc1cc(C#N)ccc1CCNCc1ccccc1O [Cpd #113] |  | 30.3 | 102 |  |  |  | 4.9 |  | 90 |  | 34 |  | 1290 | 
CSc1ccccc1CNCCc1ccc(O)cc1O [Cpd #120] | Inactive |  |  |  |  |  |  |  | 90 |  |  | 518 |  | Inactive
CSc1ccccc1CCCNCCc1ccc(C#N)cc1O [Cpd #135] |  | 121 | 65 |  |  |  |  |  | 51 | 502 | 15 | 423 |  | 
COc1cc(-c2cncnc2)ccc1CCNCc1ccccc1Cl [Cpd #105] | Inactive | 1490 | 107 |  |  |  |  |  | 86 |  |  | 1610 |  | 
